Measured values as given in US10087156B2, “Methods and compositions related to retinoid receptor-selective pathway” (Sanford Burnham Prebys Medical Discovery Institute, priority 2010, dated 2018).

What was measured:
[1] = Preclinical bioavailability and pharmacokinetics; format: in vivo
Protocol: Preclinical studies of K-80003 were performed, including the investigation of toxicity, bioavailability, and pharmacokinetics.

HepG2 cells = assay: Bax activation by Bax/6A7 immunostaining; format: cell-based
Protocol: Activation of Bax by Sulindac and TNFα. HepG2 cells treated with TNFα and/or Sulindac were immunostained with Bax/6A7 antibody. […] HepG2 cells treated with TNFα or Sulindac alone or together were examined for Bax activation by immunostaining using conformation-sensitive Bax/6A7 antibody. Significant Bax staining was observed only when cells were treated with both TNFα and Sulindac (FIG. 6E). Cross-talk between extrinsic and intrinsic apoptotic pathways can be linked through Bid cleavage and activation (Li et al., Cell 94 (4), 491-501 (1998)). […] PC3 cells transfected with CA-AKT or DN-AKT were treated with TNFα and/or Sulindac, and analyzed by immunoblotting (FIG. 6F). Activation of caspase-8 (FIG. 6G) and Bax (FIG. 6H) by Sulindac and TNFα. HepG2 cells transfected with CA-AKT were treated with TNFα and Sulindac, and immunostained with anti-cleaved caspase-8 or Bax/6A7 antibody. […] Sulindac/TNFα-induced PARP cleavage was inhibited by transfection of constitutive-active AKT (CA-AKT) but enhanced by transfection of dominant-negative AKT (DN-AKT) (FIG. 6F). Consistently, induction of apoptosis (FIG. 17B) and activation of caspase-8 (FIG. 6G) and Bax (FIG. 6H) by Sulindac/TNFα combination was inhibited by CA-AKT.

| SMILES | bioavailability ([1]; oral compared to intravenous formulation) | PK profiles ([1]; preclinical study) | cells showing Bax staining, Sulindac/TNFα (HepG2 cells; Bax/6A7 antibody) | cells exhibiting Bax staining, CA-AKT-transfected (HepG2 cells; TNFα and Sulindac) | cells exhibiting Bax staining, nontransfected (HepG2 cells; TNFα and Sulindac) |
| --- | --- | --- | --- | --- | --- |
| CC1=C(CC(=O)O)c2cc(F)ccc2/C1=C\c1ccc(C(C)C)cc1 [K-80003, (Z)-2-(3-(4-Iso-propylbenzylidene)-6-fluoro-2-methyl-3H-inden-1-yl)acetic acid] | increased bioavailaility in oral compared to intravenous formulation | desirable PK profiles |  |  |  |
| CSc1ccc(/C=C2/C(C)=C(CC(=O)O)c3cc(F)ccc32)cc1 [Sulindac, (Z)-2-(3-(4-(Methylthio)benzylidene)-6-fluoro-2-methyl-3H-inden-1-yl)acetic acid] |  |  | about 60% | about 13% | About 60% |
